Source: patent publication US20190211099A1, “METHODS AND COMPOSITIONS FOR TREATING CANCER WITH SIGLEC-9 ACTIVITY MODULATORS” (KING'S COLLEGE LONDON, priority 2016, published 2019)

System: allogeneic CD8+ T cells
Experiment: Co-culture of MUC1-ST treated macrophages with allogeneic CD8+ T cells
Format: cell-based, human
Conditions: macrophages educated with MUC1-ST
Description: Thereafter, the effects of MUC1-ST educated macrophages on T cell function were analyzed. Macrophages treated with MUC1-ST were co-cultured with eFluor® 670 labelled allogeneic CD8+ T cells in the presence of absence of anti-Siglec-9 antibody or isotype control. Indeed, macrophages that had been educated with MUC1-ST were decreased in their ability to stimulate the proliferation of allogeneic CD8 T cells (FIG. 11E). […] (FIG. 11F). This profile of expression and functional activity is indicative of tumor-associated macrophages (TAMs), which play a role in promoting tumor progression (Noy et al. (2014) IMMUNITY 41: 49-61; Sousa et al. (2015) BREAST CANCER RES. 17: 101; Qian et al. (2010) CELL 141: 39-45).

NeuAcα2,3Galβ1-3GalNAc linked via a Ser/Thr of MUC1 [MUC1-ST]
CD8 IFNγ secretion: decreased
ability of macrophages to stimulate proliferation of allogeneic CD8 T cells: decreased
